We go through eight compounds from ChEMBL document CHEMBL4732152, “Flavonoids from Woodfordia fruticosa as potential SmltD inhibitors in the alternative biosynthetic pathway of peptidoglycan” (Bioorg Med Chem Lett, 2021).

Activity calls are given as the source filed them. The calls are words filed in the database; no cut-off is given here. *1 amine or outer side, *2 acyl side, *3 side chain or, on linkers, in order; H or OH if unused. Where a SMILES comes first, the peptide text is derived from it. Bridges are numbered along the chain shown (N, C = ends). Roman numbers before positions name the chains, in order. [ ]: non-standard residue; d: D form. Actinocin(1to9) = Cc1c2oc3c(C)ccc(C(=O)[*:2])c3nc-2c(C(=O)[*:1])c(N)c1=O; NMeV = CN[C@H](C(=O)O)C(C)C; Sar = CNCC(=O)O

A short description of assay [1]: Inhibition of Stenotrophomonas maltophilia SmltD using UDP-MurNAc-L-Ala[…] as substrate in presence of ATP incubated for 5 mins by HPLC.
The subject of assay [2] is Stenotrophomonas maltophilia. In words: Non-Competitive inhibition of Stenotrophomonas maltophilia SmltD using UDP-MurNAc-L-Ala[…] as substrate by Dixon plot analysis.
Assay [3] can be described thus: Competitive inhibition of Stenotrophomonas maltophilia SmltD assessed as inhibition constant using ATP as substrate by Dixon plot analysis.
In assay [4] the test system is Stenotrophomonas maltophilia. Briefly: Non-Competitive inhibition of Stenotrophomonas maltophilia SmltD using […] as substrate by Dixon plot analysis.

As usually defined, the IC50 is the point on the concentration scale where inhibition reaches its midpoint. For the compound `O=c1c(O)c(-c2ccc(O)cc2)oc2cc(O)cc(O)c12` [KAEMPFEROL], the IC50 in assay [1] (read-out: IC50) worked out at 2.36 mM.

As for `O=c1c(O[C@H]2OC[C@@H](O)[C@@H](O)[C@@H]2O)c(-c2ccc(O)cc2)oc2cc(O)cc(O)c12`, the concentration for half-maximal inhibition (IC50) in assay [1] (read-out: IC50) was 2.05 mM.

One may read the Ki as the dissociation constant of the complex between target and ligand, obtained from inhibition or displacement. Regarding `O=C(OC[C@H]1O[C@@H](Oc2c(-c3ccc(O)cc3)oc3cc(O)cc(O)c3c2=O)[C@H](O)[C@@H](O)[C@@H]1O)c1cc(O)c(O)c(O)c1`, the inhibition result in assay [2] and in assay [4] was “Active” each time. Also, in assay [3], the Ki was determined as 110 µM. Further, in assay [1] (read-out: IC50), the IC50 was determined as 0.46 mM.

As for `Cc1c2oc3c(C)ccc(C(=O)N[C@@H]4C(=O)N[C@H](C(C)C)C(=O)N5CCC[C@H]5C(=O)N(C)CC(=O)N(C)[C@@H](C(C)C)C(=O)O[C@@H]4C)c3nc-2c(C(=O)N[C@@H]2C(=O)N[C@H](C(C)C)C(=O)N3CCC[C@H]3C(=O)N(C)CC(=O)N(C)[C@@H](C(C)C)C(=O)O[C@@H]2C)c(N)c1=O` [DACTINOMYCIN] (I: T[dV]P[Sar][NMeV] / II: T[dV]P[Sar][NMeV]; ester I:1-I:C, II:1-II:C; linker I:N-II:N via Actinocin(1to9)), the IC50 in assay [1] (read-out: IC50) came to 14.6 mM.

For the compound `OC[C@H]1O[C@@H](O)[C@H](O)[C@@H](O)[C@@H]1O` [beta-D-Glucose], in assay [1], the IC50 result is reported as “Not Active”.

On to `O=c1c(O[C@@H]2O[C@H](CO)[C@@H](O)[C@H](O)[C@H]2O)c(-c2ccc(O)cc2)oc2cc(O)cc(O)c12` [ASTRAGALIN], for which the IC50 in assay [1] (read-out: IC50) came out at 1.18 mM.

Regarding `O=C(O)c1cc(O)c(O)c(O)c1` [GALLIC ACID], the IC50 in assay [1] (read-out: IC50) was 2.86 mM.

With `O[C@H]1[C@H](O)[C@@H](O)OC[C@H]1O`, in assay [1], the IC50 result was “Not Active”.
